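Compound exposure: 48 hours, 5 concentrations, 96-well plates. The concentration for 50% growth inhibition is given as GI50.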 Calls of active or inactive are those of the source. Cut-off read from the data, not from the text of the source: active = GI50 up to about 1.1 µM and inactive = higher.
Experiments:
Test in all cases: NCI tumour cell line growth inhibition, 48 h
HOP-18 = test system: HOP-18
EKVX = test system: EKVX
OVCAR-3 = test system: OVCAR-3
OVCAR-8 = test system: OVCAR-8
SNB-75 = test system: SNB-75
RXF 393 = test system: RXF 393
HT-29 = test system: HT-29
M14 = test system: M14
RPMI-8226 = test system: RPMI-8226
HCC 2998 = test system: HCC 2998
SR = test system: SR
OVCAR-5 = test system: OVCAR-5
COLO 205 = test system: COLO 205
TK-10 = test system: TK-10
K562 = test system: K562
NCI/ADR-RES = test system: NCI/ADR-RES
MDA-MB-231 = test system: MDA-MB-231
Hs-578T = test system: Hs-578T
MCF7 = test system: MCF7
MDA-N = test system: MDA-N

`O=C(/C=C/c1cc(Cl)cc(Cl)c1O)c1cccc(O)c1` was tested, and the GI50 (HOP-18) was 31 µM (inactive), the GI50 (EKVX) was 36.3 µM (inactive) and the GI50 (OVCAR-3) was 28.4 µM (inactive). For the same compound, the GI50 (OVCAR-8) was 32.1 µM (inactive), the GI50 (SNB-75) was 36 µM (inactive) and the GI50 (RXF 393) was > 100 µM (inactive). For the same compound, the GI50 (HT-29) was 93.8 µM (inactive), the GI50 (M14) was 29.5 µM (inactive) and the GI50 (RPMI-8226) was 49.3 µM (inactive). For the same compound, the GI50 (HCC 2998) was 85.3 µM (inactive), the GI50 (SR) was 25.5 µM (inactive) and the GI50 (OVCAR-5) was 15 µM (inactive). The GI50 (COLO 205) was 18.6 µM (inactive), the GI50 (TK-10) was > 100 µM (inactive) and the GI50 (K562) was 33.4 µM (inactive).

In the case of `Nc1nc2ncn(CC(O)CO)c2c(=S)[nH]1` (stereo unspecified), the GI50 (HOP-18) is reported as > 100 µM (inactive), the GI50 (EKVX) is reported as > 100 µM (inactive) and the GI50 (OVCAR-3) is reported as > 100 µM (inactive). The GI50 (OVCAR-8) was > 100 µM (inactive), the GI50 (SNB-75) was > 100 µM (inactive) and the GI50 (RXF 393) was > 100 µM (inactive). For the same compound, the GI50 (HT-29) was > 100 µM (inactive), the GI50 (M14) was > 100 µM (inactive) and the GI50 (RPMI-8226) was > 100 µM (inactive). For the same compound, the GI50 (SR) was > 100 µM (inactive), the GI50 (OVCAR-5) was > 100 µM (inactive) and the GI50 (COLO 205) was > 100 µM (inactive). For the same compound, the GI50 (TK-10) was > 100 µM (inactive) and the GI50 (K562) was > 100 µM (inactive).

For `Cc1ccc(C2(O)CC(c3ccc([N+](=O)[O-])o3)=NN2C(=O)COc2ccc(Cl)cc2)cc1` (stereo unspecified), the GI50 (HOP-18) was 20.9 µM (inactive), the GI50 (EKVX) was 6.3 µM (inactive) and the GI50 (OVCAR-3) was 5.35 µM (inactive). For the same compound, the GI50 (OVCAR-8) was 4.63 µM (inactive), the GI50 (SNB-75) was 13.6 µM (inactive) and the GI50 (HT-29) was 5.47 µM (inactive). The GI50 (M14) was 4.93 µM (inactive), the GI50 (RPMI-8226) was 2.24 µM (inactive) and the GI50 (HCC 2998) was 6 µM (inactive). For the same compound, the GI50 (SR) was 1.82 µM (inactive), the GI50 (OVCAR-5) was 37.2 µM (inactive) and the GI50 (COLO 205) was 3.62 µM (inactive). For the same compound, the GI50 (TK-10) was 15 µM (inactive) and the GI50 (K562) was 4.07 µM (inactive).

With `COc1ccc(C2S/C(=C\c3ccc([N+](=O)[O-])cc3)C(=O)N2NC(=O)Cc2ccccc2)cc1` (stereo unspecified) the GI50 (HOP-18) was > 100 µM (inactive), the GI50 (OVCAR-8) was > 100 µM (inactive) and the GI50 (SNB-75) was 53.8 µM (inactive). For the same compound, the GI50 (RXF 393) was 25.6 µM (inactive), the GI50 (HT-29) was > 100 µM (inactive) and the GI50 (M14) was > 100 µM (inactive). The GI50 (RPMI-8226) was > 100 µM (inactive), the GI50 (SR) was > 100 µM (inactive) and the GI50 (OVCAR-5) was > 100 µM (inactive). For the same compound, the GI50 (COLO 205) was > 100 µM (inactive), the GI50 (TK-10) was > 100 µM (inactive) and the GI50 (K562) was > 100 µM (inactive).

With `O=C1Nc2ccccc2C12CCNC2Cc1ccccc1` (stereo unspecified) the GI50 (HOP-18) was 78.3 µM (inactive), the GI50 (EKVX) was > 100 µM (inactive) and the GI50 (OVCAR-3) was > 100 µM (inactive). The GI50 (OVCAR-8) was > 100 µM (inactive), the GI50 (SNB-75) was > 100 µM (inactive) and the GI50 (HT-29) was > 100 µM (inactive). The GI50 (M14) was > 100 µM (inactive), the GI50 (RPMI-8226) was > 100 µM (inactive) and the GI50 (HCC 2998) was > 100 µM (inactive). For the same compound, the GI50 (OVCAR-5) was > 100 µM (inactive), the GI50 (COLO 205) was > 100 µM (inactive) and the GI50 (TK-10) was > 100 µM (inactive). The GI50 (K562) was > 100 µM (inactive).

In the case of `CCOc1ccc(N2C(=O)/C(=C/c3ccc(N(CCC#N)CCC#N)cc3)N=C2c2cc([N+](=O)[O-])ccc2Cl)cc1`, the GI50 (HOP-18) is reported as > 100 µM (inactive), the GI50 (EKVX) is reported as 27.4 µM (inactive) and the GI50 (OVCAR-3) is reported as 17.7 µM (inactive). The GI50 (OVCAR-8) was 35.3 µM (inactive), the GI50 (SNB-75) was 30.3 µM (inactive) and the GI50 (RXF 393) was 12.2 µM (inactive). The GI50 (M14) was 24.1 µM (inactive), the GI50 (RPMI-8226) was 15.7 µM (inactive) and the GI50 (HCC 2998) was 37.2 µM (inactive). The GI50 (OVCAR-5) was > 100 µM (inactive), the GI50 (COLO 205) was 17.6 µM (inactive) and the GI50 (TK-10) was 58.1 µM (inactive). The GI50 (K562) was 21.3 µM (inactive).

With `Cc1cc(C)nc(NS(=O)(=O)c2ccc(NC(=O)c3ccc4nc5ccccc5c(Nc5ccc(S(=O)(=O)Nc6nc(C)cc(C)n6)cc5)c4c3)cc2)n1` the GI50 (EKVX) was > 100 µM (inactive), the GI50 (OVCAR-3) was > 100 µM (inactive) and the GI50 (OVCAR-8) was > 100 µM (inactive). The GI50 (SNB-75) was > 100 µM (inactive), the GI50 (RXF 393) was 34.9 µM (inactive) and the GI50 (HT-29) was 64.9 µM (inactive). The GI50 (M14) was > 100 µM (inactive), the GI50 (RPMI-8226) was 37.2 µM (inactive) and the GI50 (NCI/ADR-RES) was > 100 µM (inactive). For the same compound, the GI50 (MDA-MB-231) was 20.8 µM (inactive), the GI50 (HCC 2998) was 61.8 µM (inactive) and the GI50 (Hs-578T) was 69.7 µM (inactive). The GI50 (SR) was 39.7 µM (inactive), the GI50 (MCF7) was 37.8 µM (inactive) and the GI50 (OVCAR-5) was > 100 µM (inactive). The GI50 (COLO 205) was > 100 µM (inactive), the GI50 (MDA-N) was 91 µM (inactive) and the GI50 (TK-10) was > 100 µM (inactive). The GI50 (K562) was 38 µM (inactive).

In the case of `CCC/C(=N\NC(=S)N1CCN(c2ccccn2)CC1)c1ccccn1`, the GI50 (HOP-18) is reported as 0.00887 µM (active), the GI50 (EKVX) is reported as 0.00729 µM (active) and the GI50 (OVCAR-3) is reported as 0.0325 µM (active). For the same compound, the GI50 (OVCAR-8) was 0.00314 µM (active), the GI50 (RXF 393) was 0.269 µM (active) and the GI50 (HT-29) was 0.00137 µM (active). The GI50 (RPMI-8226) was 0.00115 µM (active), the GI50 (MDA-MB-231) was 0.0311 µM (active) and the GI50 (HCC 2998) was 0.0594 µM (active). The GI50 (Hs-578T) was 0.213 µM (active), the GI50 (SR) was 0.00191 µM (active) and the GI50 (MCF7) was 0.00457 µM (active). The GI50 (OVCAR-5) was 0.61 µM (active), the GI50 (COLO 205) was 0.00508 µM (active) and the GI50 (MDA-N) was 0.157 µM (active). The GI50 (TK-10) was 0.335 µM (active) and the GI50 (K562) was 0.00117 µM (active).

In the case of `CC1(C)Oc2ccc(NC(=O)CCC(N)C(=O)O)cc2O1` (stereo unspecified), the GI50 (EKVX) is reported as > 100 µM (inactive), the GI50 (OVCAR-3) is reported as > 100 µM (inactive) and the GI50 (OVCAR-8) is reported as > 100 µM (inactive). For the same compound, the GI50 (SNB-75) was > 100 µM (inactive), the GI50 (RXF 393) was > 100 µM (inactive) and the GI50 (HT-29) was > 100 µM (inactive). The GI50 (M14) was > 100 µM (inactive), the GI50 (RPMI-8226) was > 100 µM (inactive) and the GI50 (NCI/ADR-RES) was > 100 µM (inactive). For the same compound, the GI50 (MDA-MB-231) was > 100 µM (inactive), the GI50 (HCC 2998) was > 100 µM (inactive) and the GI50 (Hs-578T) was > 100 µM (inactive). For the same compound, the GI50 (SR) was > 100 µM (inactive), the GI50 (MCF7) was > 100 µM (inactive) and the GI50 (OVCAR-5) was > 100 µM (inactive). The GI50 (COLO 205) was > 100 µM (inactive), the GI50 (MDA-N) was > 100 µM (inactive) and the GI50 (TK-10) was > 100 µM (inactive). The GI50 (K562) was > 100 µM (inactive).

Source: ChEMBL document CHEMBL1201862, “PubChem BioAssay data set” (2004)
